SMILES strings stand for the structures.

This note sets out measurements from US7365088B2, “Indazole-derivatives as factor Xa inhibitors” (Sanofi-Aventis Deutschland GmbH, priority 2003, dated 2008).

human factor Xa, sequence (P00742 235-488 limits assumed): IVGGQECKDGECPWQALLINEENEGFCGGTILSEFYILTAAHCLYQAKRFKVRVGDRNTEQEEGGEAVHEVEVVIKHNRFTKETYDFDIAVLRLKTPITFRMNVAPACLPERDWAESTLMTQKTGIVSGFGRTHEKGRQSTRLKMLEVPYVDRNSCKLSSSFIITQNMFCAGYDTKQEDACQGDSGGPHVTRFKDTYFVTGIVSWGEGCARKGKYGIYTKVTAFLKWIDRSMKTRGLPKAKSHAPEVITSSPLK
human factor Xa, sequence (P00742 41-179 partner limits assumed): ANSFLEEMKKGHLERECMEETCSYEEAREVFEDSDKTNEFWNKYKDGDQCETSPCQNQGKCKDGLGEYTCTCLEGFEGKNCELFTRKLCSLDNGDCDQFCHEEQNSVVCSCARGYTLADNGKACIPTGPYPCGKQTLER

The experiment addresses human factor Xa (Homo sapiens, UniProt P00742). In words: Factor Xa assay (chromogenic, substrate S-2765).
Consider `COC(=O)c1ccc2c(C(=O)NC3CCN(C(C)C)CC3)nn(Cc3cc(-c4ccc(Cl)s4)on3)c2c1` [Example 2, 1-[5-(5-Chloro-thiophen-2-yl)-isoxazol-3-ylmethyl]-3-(1-isopropyl-piperidin-4-ylcarbamoyl)-1H-indazole-6-carboxylic acid methyl ester], for which the Ki worked out at 35 nM. This lies in the double-digit nanomolar range.

Turning to `CC(C)N1CCC(NC(=O)c2nn(CC(=O)Nc3ccc(Cl)cn3)c3ccccc23)CC1` [Example 7], the Ki was 86 nM. Compared with the last compound, the Ki is about 2.5-fold higher.

For the compound `CC(C)N1CCC(NC(=O)c2nn(Cc3cc(-c4ccc(Cl)s4)on3)c3ccc(C(=O)N(CCO)CCO)cc23)CC1` [Example 17, 1-[5-(5-Chloro-thiophen-2-yl)-isoxazol-3-ylmethyl]-1H-indazole-3,5-dicarboxylic acid 5-[bis-(2-hydroxy-ethyl)-amide]3-[(1-isopropyl-piperidin-4-yl)-amide]], the inhibitory constant (Ki) was determined as 30 nM.

Compound `CC(C)N1CCC(NC(=O)c2nn(Cc3cc(-c4ccc(Cl)s4)on3)c3ccc(C(=O)N(C)CC(=O)O)cc23)CC1` [Example 28, {[1-[5-(5-Chloro-thiophen-2-yl)-isoxazol-3-ylmethyl]-3-(1-isopropyl-piperidin-4-ylcarbamoyl)-1H-indazole-5-carbonyl]-methyl-amino}-acetic acid] showed a Ki of 15 nM.

Consider `CC(C)N1CCC(NC(=O)c2nn(Cc3cc(-c4ccc(Cl)s4)on3)c3ccc(C(=O)O)cc23)CC1` [Example 4, 1-[5-(5-Chloro-thiophen-2-yl)-isoxazol-3-ylmethyl]-3-(1-isopropyl-piperidin-4-ylcarbamoyl)-1H-indazole-5-carboxylic acid], for which the inhibition constant Ki worked out at 18 nM. This Ki and that of the compound before are within 1.5-fold of each other.

`CC1CC(=O)NN=C1c1ccc(NC(=O)c2nn(Cc3cc(-c4ccc(Cl)s4)on3)c3ccccc23)cc1` (stereo not shown) [Example 43, 1-[5-(5-Chloro-thiophen-2-yl)-isoxazol-3-ylmethyl]-1H-indazole-3-carboxylic acid [4-(4-methyl-6-oxo-1,4,5,6-tetrahydro-pyridazin-3-yl)-phenyl]-amide]: the affinity, expressed as Ki, was 730 nM.

For `CC(C)N1CCC(NC(=O)c2nn(Cc3cc(-c4ccc(Cl)s4)on3)c3ccc(C(=O)NC[Si](C)(C)C)cc23)CC1` [Example 16, 1-[5-(5-Chloro-thiophen-2-yl)-isoxazol-3-ylmethyl]-1H-indazole-3,5-dicarboxylic acid 3-[(1-isopropyl-piperidin-4-yl)-amide]5-trimethylsilanylmethyl-amide], the inhibitory constant (Ki) was determined as 54 nM.

Turning to `CC(C)N1CCC(NC(=O)c2nn(Cc3cc(-c4ccc(Cl)s4)on3)c3ccc(C(=O)NC(C)(CO)CO)cc23)CC1` [Example 24, 1-[5-(5-Chloro-thiophen-2-yl)-isoxazol-3-ylmethyl]-1H-indazole-3,5-dicarboxylic acid 5-[(2-hydroxy-1-hydroxymethyl-1-methyl-ethyl)-amide]3-[(1-isopropyl-piperidin-4-yl)-amide]], the inhibition constant Ki came out at 51 nM.

`CC(C)N1CCC(NC(=O)c2nn(Cc3cc(-c4ccc(Cl)s4)on3)c3ccc(C(=O)NCC(F)(F)F)cc23)CC1` [Example 27, 1-[5-(5-Chloro-thiophen-2-yl)-isoxazol-3-ylmethyl]-1H-indazole-3,5-dicarboxylic acid 3-[(1-isopropyl-piperidin-4-yl)-amide]5-[(2,2,2-trifluoro-ethyl)-amide]] yielded an inhibitory constant (Ki) of 39 nM.

`CC(C)N1CCC(NC(=O)c2nn(Cc3cc(-c4ccc(Cl)s4)on3)c3ccc(C(=O)NCCN4CCNC4=O)cc23)CC1` [Example 23, 1-[5-(5-Chloro-thiophen-2-yl)-isoxazol-3-ylmethyl]-1H-indazole-3,5-dicarboxylic acid 3-[(1-isopropyl-piperidin-4-yl)-amide]5-{[2-(2-oxo-imidazolidin-1-yl)-ethyl]-amide}] yielded an inhibition constant Ki of 33 nM. The Ki values of the last two compounds are within 1.5-fold of each other.

Consider `O=C(Nc1ccc(C(=O)N2CCCC2)cc1)c1nn(Cc2cc(-c3ccc(Cl)s3)on2)c2ccccc12` [Example 34, 1-[5-(5-Chloro-thiophen-2-yl)-isoxazol-3-ylmethyl]-1H-indazole-3-carboxylic acid [4-(pyrrolidine-1-carbonyl)-phenyl]-amide], for which the affinity corresponds to a Ki of 120 nM.

Turning to `COC(=O)c1cccc2c(C(=O)NC3CCN(C(C)C)CC3)nn(Cc3cc(-c4ccc(Cl)s4)on3)c12` [Example 3, 1-[5-(5-Chloro-thiophen-2-yl)-isoxazol-3-ylmethyl]-3-(1-isopropyl-piperidin-4-ylcarbamoyl)-1H-indazole-7-carboxylic acid methyl ester], the affinity corresponds to a Ki of 17 nM. Against the preceding compound, the Ki is about 7.1-fold lower.

On to `CC(C)N1CCC(NC(=O)c2nn(Cc3cc(-c4ccc(Cl)s4)on3)c3ccc(C(=O)N(C)CCO)cc23)CC1` [Example 18, 1-[5-(5-Chloro-thiophen-2-yl)-isoxazol-3-ylmethyl]-1H-indazole-3,5-dicarboxylic acid 5-[(2-hydroxy-ethyl)-methyl-amide]3-[(1-isopropyl-piperidin-4-yl)-amide]], for which the Ki amounted to 13 nM.

For the compound `CC(C)N1CCC(NC(=O)c2nn(Cc3cc(-c4ccc(Cl)s4)on3)c3ccc(C(=O)NCCN4CCOCC4)cc23)CC1` [Example 15, 1-[5-(5-Chloro-thiophen-2-yl)-isoxazol-3-ylmethyl]-1H-indazole-3,5-dicarboxylic acid 3-[(1-isopropyl-piperidin-4-yl)-amide]5-[(2-morpholin-4-yl-ethyl)-amide]], the affinity, expressed as Ki, was 46 nM. This Ki lies about 3.5-fold higher than the previous one.

`O=C(Nc1ccc(-c2c[nH]cn2)cc1)c1nn(Cc2cc(-c3ccc(Cl)s3)on2)c2ccccc12` [Example 45, 1-[5-(5-Chloro-thiophen-2-yl)-isoxazol-3-ylmethyl]-1H-indazole-3-carboxylic acid [4-(1H-imidazol-4-yl)-phenyl]-amide] registered a Ki of 180 nM.

`O=C(Nc1ccc(-n2ccc(=O)cc2)cc1)c1nn(Cc2cc(-c3ccc(Cl)s3)on2)c2ccccc12` [Example 54, 1-[5-(5-Chloro-thiophen-2-yl)-isoxazol-3-ylmethyl]-1H-indazole-3-carboxylic acid [4-(4-oxo-4H-pyridin-1-yl)-phenyl]-amide] displayed a Ki of 52 nM.

Regarding `COCCOC(=O)c1ccc2c(c1)c(C(=O)NC1CCN(C(C)C)CC1)nn2Cc1cc(-c2ccc(Cl)s2)on1` [Example 56, 1-[5-(5-Chloro-thiophen-2-yl)-isoxazol-3-ylmethyl]-3-(1-isopropyl-piperidin-4-ylcarbamoyl)-1H-indazole-5-carboxylic acid 2-methoxy-ethyl ester], the inhibition constant (Ki) was determined as 43 nM.

Regarding `CC(C)N1CCC(NC(=O)c2nn(Cc3cc(-c4ccc(Cl)s4)on3)c3cccc(C#N)c23)CC1` [Example 10, 1-[5-(5-Chloro-thiophen-2-yl)-isoxazol-3-ylmethyl]-4-cyano-1H-indazole-3-carboxylic acid (1-isopropyl-piperidin-4-yl)-amide], the inhibition constant (Ki) came out at 9 nM.

Compound `CC(C)N1CCC(NC(=O)c2nn(Cc3cc(-c4ccc(Cl)s4)on3)c3ccccc23)CC1` [Example 8, 1-[5-(5-Chloro-thiophen-2-yl)-isoxazol-3-ylmethyl]-1H-indazole-3-carboxylic acid (1-isopropyl-piperidin-4-yl)-amide] registered an inhibitory constant (Ki) of 6 nM.

For the compound `CS(=O)(=O)c1ccccc1-c1ccc(NC(=O)c2nn(Cc3cc(-c4ccc(Cl)s4)on3)c3ccccc23)cc1` [Example 41, 1-[5-(5-Chloro-thiophen-2-yl)-isoxazol-3-ylmethyl]-1H-indazole-3-carboxylic acid (2′-methanesulfonyl-biphenyl-4-yl)-amide], the Ki turned out to be 7 nM.

`COC(=O)c1ccc2c(c1)c(C(=O)NC1CCN(C(C)C)CC1)nn2Cc1cc(-c2ccc(Cl)s2)on1` [Example 1, 1-[5-(5-Chloro-thiophen-2-yl)-isoxazol-3-ylmethyl]-3-(1-isopropyl-piperidin-4-ylcarbamoyl)-1H-indazole-5-carboxylic acid methyl ester]: the Ki came out at 79 nM.

For the compound `CC(C)N1CCC(NC(=O)c2nn(Cc3cc(-c4ccc(Cl)s4)on3)c3ccc(C(=O)N4CC(C(=O)O)C4)cc23)CC1` [Example 52, 1-[1-[5-(5-Chloro-thiophen-2-yl)-isoxazol-3-ylmethyl]-3-(1-isopropyl-piperidin-4-ylcarbamoyl)-1H-indazole-5-carbonyl]-azetidine-3-carboxylic acid], the affinity, expressed as Ki, was 10 nM.

For `COC(=O)c1ccc2c(c1)c(C(=O)Nc1ccc(N3CCOCC3=O)cc1)nn2Cc1cc(-c2ccc(Cl)s2)on1` [Example 47, 1-[5-(5-Chloro-thiophen-2-yl)-isoxazol-3-ylmethyl]-3-[4-(3-oxo-morpholin-4-yl)-phenylcarbamoyl]-1H-indazole-5-carboxylic acid methyl ester], the Ki came to 9 nM.

Take `O=C(Cn1nc(C(=O)Nc2ccc(N3CCOCC3=O)cc2)c2ccccc21)Nc1ccc(Cl)cn1` [Example 53, 1-[(5-Chloro-pyridin-2-ylcarbamoyl)-methyl]-1H-indazole-3-carboxylic acid [4-(3-oxo-morpholin-4-yl)-phenyl]-amide]: the inhibition constant (Ki) is 240 nM.

Take `O=C(c1nn(Cc2cc(-c3ccc(Cl)s3)on2)c2ccccc12)N1CCC(N2CCCC2=O)CC1` [Example 37, 1-(1-{1-[5-(5-Chloro-thiophen-2-yl)-isoxazol-3-ylmethyl]-1H-indazole-3-carbonyl}-piperidin-4-yl)-pyrrolidin-2-one]: the affinity, expressed as Ki, was 210 nM. This Ki and that of the compound before are within 1.5-fold of each other.

Compound `CCOC(=O)CNC(=O)c1ccc2c(c1)c(C(=O)NC1CCN(C(C)C)CC1)nn2Cc1cc(-c2ccc(Cl)s2)on1` [Example 19, {[1-[5-(5-Chloro-thiophen-2-yl)-isoxazol-3-ylmethyl]-3-(1-isopropyl-piperidin-4-ylcarbamoyl)-1H-indazole-5-carbonyl]-amino}-acetic acid ethyl ester] displayed an inhibition constant (Ki) of 26 nM.

`O=C(Nc1ccc(N2CCCC2=O)cc1)c1nn(Cc2cc(-c3ccc(Cl)s3)on2)c2ccccc12` [Example 39, 1-[5-(5-Chloro-thiophen-2-yl)-isoxazol-3-ylmethyl]-1H-indazole-3-carboxylic acid [4-(2-oxo-pyrrolidin-1-yl)-phenyl]-amide]: the affinity, expressed as Ki, was 19 nM.

`CC(C)N1CCC(NC(=O)c2nn(Cc3cc(-c4ccc(Cl)s4)on3)c3ccc(C(=O)NCCS(C)(=O)=O)cc23)CC1` [Example 13, 1-[5-(5-Chloro-thiophen-2-yl)-isoxazol-3-ylmethyl]-1H-indazole-3,5-dicarboxylic acid 3-[(1-isopropyl-piperidin-4-yl)-amide]5-[(2-methanesulfonyl-ethyl)-amide]] yielded a Ki of 40 nM.

In general, Ki refers to the equilibrium dissociation constant of an inhibitor or competing ligand from its target. A high value points to a looser hold on the target.
